Legend:
[1] = tested on: mutant du sarcome de Crocker 180 TG; assay: Antitumour activity in mice grafted intraperitoneally with ascitic sarcoma (nine experiments, figures 1 to 9); type: in vivo, souris Swiss
Procedure: La tumeur utilisée dans les expériences qui suivent est un mutant du sarcome de Crocker 180 TG qui résiste au traitement par les dérivés puriques.
Les animaux d'expériences sont toujours des souris Swiss de l'élevage susmentionné.
On leur inocule le sarcome par voie intrapéritonéale en utilisant une suspension de 10^6 cellules/0,5 ml.. La quantité inoculée est de 0,5 ml.
Les expériences ont été réalisées en utilisant : • - le butyrate d'arginine ou de lysine, • - l'interféron, • - le corynébacterium parvum (ou CP) de souche Mérieux.
Le butyrate d'arginine a été mis en oeuvre sous la forme et en quantité analogue à ce qui est indiqué plus haut pour l'activité antivirale.
Le CP est administré dans les expériences qui suivent sous la forme d'une dose unique appliquée au moment de la greffe ou trois jours après et se présentant sous la forme d'ampoules de 2 ml comprenant 4 mg en poids sec de germes tués par le formol et la chaleur; on injecte 0,1 ml de cette substance à la souris par voie intrapéritonéale.
On a procédé à neuf expériences indépendantes portant chacune sur plusieurs groupes de 15 animaux.
Dans la première de ces expériences (groupe témoin), on a greffé aux animaux la tumeur seule.
Dans les deuxième et troisième expériences, le butyrate d'amino-acide basique a été appliqué par voie intrapéritonéale à raison de 0,5 ml d'une solution 50 fois millimolaire par souris (c'est-à-dire à raison de respectivement 0,28 mg et 0,24 mg par g de souris), trois fois par semaine (à 48 heures d'intervalle) pendant trois semaines.
Dans la quatrième expérience, on a appliqué l'interféron à raison de 20.000 à 50.000 U.I. sous un volume de 0,5 ml administré à l'animal trois fois par semaine (à 48 heures d'intervalle) pendant trois semaines.
Dans la cinquième expérience, on a appliqué le CP en une dose unique de 200 microgrammes/0,1 ml par animal, administrée par voie intrapéritonéale en même temps ou trois jours après la greffe cellulaire.
Dans les sixième à neuvième expériences, on a appliqué, suivant le cas, le butyrate d'amino-acide basique, l'interféron et/ou le CP aux mêmes doses, au même rythme et aux mêmes moments que lorsque ces produits étaient appliqués seuls dans les expériences précédentes.
Ces histogrammes montrent, en fonction du temps (nombre de jours T), le nombre N d'animaux survivants et, parmi ces animaux survivants, le nombre d'animaux portant des tumeurs décelables.
Ainsi, le nombre d'animaux survivants est porté, pour un jour donné, en ordonnée sous la forme d'une colonne figurant le nombre d'animaux et à l'intérieur de laquelle on matérialise par des hachures le nombre d'animaux porteurs de tumeurs.

[2] = tested on: virus de l'encéphalomyocardite de la souris (EMC) de la souche Mengo; assay: Antiviral protection of mice against the lethal effect of 100 DL50 of EMC virus; settings: for survie lorsqu'on administre aussi de l'interféron: given together with interféron; for survie relevée au moment où la mortalité cesse dans la série d'animaux témoins: propionate d'arginine 0,252 mg/g, hexanoate d'arginine 0,29 mg/g, virus-only controls 5 sur 30
Description: Dans ces expériences, on met en évidence l'activité antivirale contre l'effet léthal de 100 DL50 du virus de l'encéphalomyocardite.
Les animaux de laboratoire utilisés sont des souris du type "Swiss" provenant d'un élevage propre aux Inventeurs.
Le virus employé est celui de l'encéphalomyocar- dite de la souris (EMC) de la souche Mengo cultivée sur des cellules murines L 929.
Le titre des suspensions de virus est estimé par la "méthode des plages" en utilisant toujours des cellules murines L 929. On admet que 5 unités (UFP) formant des plages, correspondent à une dose léthale DL50.
Le virus est inoculé par voie intrapéritonéale.
On réalise également, à titre de comparaison, les expériences suivantes : • - prétraitement des animaux par le butyrate de sodium avant inoculation du virus EMC, • - traitement par le butyrate d'arginine ou de lysine simultanément à l'injection du virus.
Des groupes de souris témoin sont traités par le virus seul et le solvant (milieu isotonique) seul.
et on a administré pour chaque expérience 0,5 ml de ces solutions par souris de 25 g.
L'interféron a été administré à raison de 20.000 à 25.000 unités internationales par souris par voie intrapéritonéale sous un volume de 0,5 ml et l'immunostimulant, à savoir le corynébacterium parvum, souche Mérieux, a été injecté à l'animal par voie intrapéritonéale à raison de 200 µg/0,1 ml/souris.
L'action antivirale a été étudiée dans les mêmes conditions que plus haut.

[3] = 45 animals at start, butyrate de lysine 0,24 mg/g i.p. 3 times a week for 3 weeks

In the case of butyrate de lysine, the “animaux restants au bout de 44 jours” value [1, 3] is reported as 2, the “porteurs de tumeur parmi les animaux restants au bout de 44 jours” value [1, 3] is reported as 1 and the “animaux porteurs de tumeurs au 10e jour” value ([1]; butyrate 0,5 ml of 50 mM i.p. 3 times a week for 3 weeks (0,28 or 0,24 mg/g), interféron 20.000 à 50.000 U.I. 3 times a week for 3 weeks, CP single dose 200 microgrammes i.p.) is reported as 32 sur 45. For the same substance, the “animaux survivants après 100 jours d'observation” value ([1]; same doses as E4, group sizes 45 to 75 animals, no control survives beyond day 28) was “un seul” and the effet protecteur ([2]; treatment given simultaneously with the injection of the virus) was “aucun effet protecteur”.
With hexanoate d'arginine the “survie lorsqu'on administre aussi de l'interféron” value [2] was “considérablement augmentée” and the “survie relevée au moment où la mortalité cesse dans la série d'animaux témoins” value [2] was 11 sur 30.
For propionate d'arginine, the “survie lorsqu'on administre aussi de l'interféron” value [2] was “considérablement augmentée” and the “survie relevée au moment où la mortalité cesse dans la série d'animaux témoins” value [2] was 18 sur 30.
